Results on 22 compounds are retold here after US20100222396A1 (Novartis AG, priority 2009, published 2010).

Experiment [1] concerns the target T1, human orexin 1 receptor (hOx1R) (Homo sapiens, UniProt O43613).
T1 construct: expressed in transfected cells
T1 sequence (O43613 1-425): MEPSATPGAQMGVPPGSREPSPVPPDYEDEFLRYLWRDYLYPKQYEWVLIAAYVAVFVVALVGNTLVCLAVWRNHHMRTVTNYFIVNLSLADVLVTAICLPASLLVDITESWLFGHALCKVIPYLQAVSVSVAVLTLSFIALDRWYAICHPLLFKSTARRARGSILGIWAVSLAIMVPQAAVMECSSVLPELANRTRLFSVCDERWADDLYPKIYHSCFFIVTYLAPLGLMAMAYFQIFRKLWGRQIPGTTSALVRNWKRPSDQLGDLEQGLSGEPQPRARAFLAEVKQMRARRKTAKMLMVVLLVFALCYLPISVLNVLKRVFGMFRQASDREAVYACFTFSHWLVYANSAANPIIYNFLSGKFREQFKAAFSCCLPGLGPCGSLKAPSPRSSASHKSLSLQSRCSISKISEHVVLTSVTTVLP
As to the kind of experiment: Calcium accumulation in cells (FLIPR), antagonism of orexin A, hOx1R. The format is cell-based. The note with it: for inhibition at 10 µM: measured at a concentration of 10 μM of compound (cells marked ^a); for Kd: cells expressing human orexin 1 receptor, IC50 vs orexin A converted by Cheng and Prusoff correction. How it is done: (§1) Cells expressing human orexin 1 or human orexin 2 receptors, were seeded at 8,000 cells/well in 384 well black-walled clear bottom, poly-D-lysine coated plates. After 24 h, the medium was removed and cells were washed once with phosphate buffered saline and serum-deprived overnight in assay buffer (130 mM NaCl, 5.4 mM KCl, 1.8 mM CaCl2, 0.8 mM MgSO4, 0.9 mM NaH2PO4, 25 mM glucose, 20 mM HEPES, pH 7.4) containing bovine serum albumin (1% w/v).
(§2) On the day of the experiment, the cells seeded in black plates were treated with assay buffer containing the Ca^2+ sensitive fluorescent dye Fluo-4-AM (2 μM), and probenecid (0.1 mM). After 1 h plates were washed twice with, and resuspended in, assay buffer containing probenecid (0.1 mM) using a multi plate washer. The plates were placed into a FLIPR II (Fluorometric Imaging Plate Reader, Molecular Devices, Sunnyvale, Calif., USA) and baseline fluorescence (fluorescence light units, FLU) was measured (5 measurements, 2 S each; laser excitation 488 nm at 0.6-1 W, CCD camera exposure 0.4 s) before addition of buffer alone (basal) or containing test compounds (either compound of formula I alone, agonist alone or agonist in the presence of various concentrations of compounds of formula I). Fluorescence measurements were then continued every 1 S for 120 S followed by every 4 S for 240 S.
(§3) The measurements were typically made in two sequences:
(§4) Compounds of formula I were tested usually in a concentration range from 10^−9 M to 10^−5 M.
(§5) In the second round, performed one hour later (to allow for equilibration), Orexin A was tested either in the absence (calibration curves, Orexin A agonist controls) or in the presence of compounds of formula I to determine antagonism.

Experiment [2] deals with T2, human orexin 2 receptor (hOx2R) (Homo sapiens, UniProt O43614).
T2 construct: expressed in transfected cells
T2 sequence (O43614 1-444): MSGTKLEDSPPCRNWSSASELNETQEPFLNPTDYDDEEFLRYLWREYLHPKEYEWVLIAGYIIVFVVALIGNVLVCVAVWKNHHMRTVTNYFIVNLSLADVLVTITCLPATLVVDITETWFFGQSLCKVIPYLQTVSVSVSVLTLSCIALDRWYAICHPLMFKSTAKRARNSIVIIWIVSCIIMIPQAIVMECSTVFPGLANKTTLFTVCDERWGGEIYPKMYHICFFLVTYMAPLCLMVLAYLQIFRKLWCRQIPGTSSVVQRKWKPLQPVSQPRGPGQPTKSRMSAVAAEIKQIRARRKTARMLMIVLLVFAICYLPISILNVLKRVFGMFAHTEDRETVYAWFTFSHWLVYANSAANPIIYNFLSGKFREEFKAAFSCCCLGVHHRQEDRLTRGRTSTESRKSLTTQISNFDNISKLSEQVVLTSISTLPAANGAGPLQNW
In words: Calcium accumulation in cells (FLIPR), antagonism of orexin A, hOx2R. The format is cell-based. The note with it: for Kd: cells expressing human orexin 2 receptor, IC50 vs orexin A converted by Cheng and Prusoff correction; for inhibition at 10 µM: measured at a concentration of 10 μM of compound (cells marked ^a). How it is done:
as §1, §2, §3, §4, §5

Each structure is given as a SMILES string.

A word on the inhibition: it is the drop in the measured response relative to a control, in per cent. The Kd is the equilibrium constant for the complex coming apart.

Turning to `CN(C(=O)c1ccccc1)[C@H](CCNC(=O)c1ccccc1)Cc1ccccc1` [Example 15, N—[(S)-3-(Benzoyl-methyl-amino)-4-phenyl-butyl]-benzamide], the inhibition at 10 µM in experiment [1] came to 17%. The equilibrium dissociation constant (Kd) in experiment [2] came out at 272 nM.
Take `CN(C(=O)c1ccccc1)[C@@H](Cc1ccccc1)[C@H](O)CNC(=O)c1ccccn1` [Example 69, Pyridine-2-carboxylic acid [(2R,3S)-3-(benzoyl-methyl-amino)-2-hydroxy-4-phenyl-butyl]-amide]: the dissociation constant Kd amounted to 3520 nM in experiment [1] and 1660 nM in experiment [2].
Consider `CN(C(=O)c1ccc2c(c1)OCO2)[C@@H](Cc1ccccc1)[C@H](O)CNC(=O)c1ccc2c(c1)OCO2` [Example 72, Benzo[1,3]dioxole-5-carboxylic acid {(2R,3S)-3-[(benzo[1,3]dioxole-5-carbonyl)-methyl-amino]-2-hydroxy-4-phenyl-butyl}-amide], for which, in experiment [1], the inhibition at 10 µM is 27%. The Kd in experiment [2] was 761 nM.
On to `CN(C(=O)c1ccc2ccn(C)c2c1)[C@H](CCNC(=O)c1ccccn1)Cc1ccccc1` [Example 85, 1-Methyl-1H-indole-6-carboxylic acid {(S)-1-benzyl-3-[(pyridine-2-carbonyl)-amino]-propyl}-methyl-amide], for which the Kd came to 237 nM in experiment [1] and 394 nM in experiment [2].
As for `CN(C(=O)c1ccccc1)[C@H](CCNC(=O)c1cccnc1)Cc1ccccc1` [Example 86, N—[(S)-3-(Benzoyl-methyl-amino)-4-phenyl-butyl]-nicotinamide], in experiment [1], the inhibition at 10 µM is 4%. Also, the Kd in experiment [2] was 1500 nM.
In the case of `CN(C(=O)c1ccccc1)[C@H](CCNC(=O)c1ccc2ccccc2n1)Cc1ccccc1` [Example 87, Quinoline-2-carboxylic acid [(S)-3-(benzoyl-methyl-amino)-4-phenyl-butyl]-amide], the Kd in experiment [1] is 4420 nM; in experiment [2], 1290 nM.
For `CN(C(=O)c1ccccc1)[C@H](CCNC(=O)c1ccc2cccnc2c1)Cc1ccccc1` [Example 88, Quinoline-7-carboxylic acid [(S)-3-(benzoyl-methyl-amino)-4-phenyl-butyl]-amide], the inhibition at 10 µM in experiment [1] turned out to be 19%. The Kd in experiment [2] amounted to 3090 nM.
Turning to `CN(C(=O)c1ccccc1)[C@H](CCNC(=O)c1cc2ccccc2cn1)Cc1ccccc1` [Example 89, Isoquinoline-3-carboxylic acid [(S)-3-(benzoyl-methyl-amino)-4-phenyl-butyl]-amide], the figures for the Kd in experiment [1] and in experiment [2] were 5450 nM and 2550 nM, respectively.
Taken in the same sequence, the figures for `COc1ccc(C(=O)N(C)[C@H](CCNC(=O)c2nc3ccccc3n2C)Cc2ccccc2)cc1` [Example 90, 1-Methyl-1H-benzoimidazole-2-carboxylic acid {(S)-3-[(4-methoxy-benzoyl)-methyl-amino]-4-phenyl-butyl}-amide] were 1250 nM and 2540 nM.
In the case of `CN(C(=O)c1ccccc1)[C@H](CCNC(=O)c1cccn1C)Cc1ccccc1` [Example 91, 1-Methyl-1H-pyrrole-2-carboxylic acid [(S)-3-(benzoyl-methyl-amino)-4-phenyl-butyl]-amide], the inhibition at 10 µM in experiment [1] came to 16%. The Kd in experiment [2] turned out to be 375 nM.
Taken in the same sequence, the figures for `CN(C(=O)c1ccccc1)[C@H](CCNC(=O)c1nccn1C)Cc1ccccc1` [Example 92, 1-Methyl-1H-imidazole-2-carboxylic acid [(S)-3-(benzoyl-methyl-amino)-4-phenyl-butyl]-amide] were 2% and 921 nM.
In the same order, the values of `CN(C(=O)c1ccccc1)[C@H](CCNC(=O)c1ccc2c(c1)CCO2)Cc1ccccc1` [Example 94, 2,3-Dihydro-benzofuran-5-carboxylic acid [(S)-3-(benzoyl-methyl-amino)-4-phenyl-butyl]-amide] are 12% and 565 nM.
For `Cc1cccc(C)c1C(=O)N(C)[C@H](CCNC(=O)c1ccccn1)Cc1ccccc1` [Example 98, Pyridine-2-carboxylic acid {(8)-3-[(2,6-dimethyl-benzoyl)-methyl-amino]-4-phenyl-butyl}-amide], the inhibition at 10 µM in experiment [1] was 28%; in experiment [2], 24%.
As for `CN(C(=O)c1ccccc1Br)[C@H](CCNC(=O)c1ccccn1)Cc1ccccc1` [Example 100, Pyridine-2-carboxylic acid {(8)-3-[(2-bromo-benzoyl)-methyl-amino]-4-phenyl-butyl}-amide], the Kd in experiment [1] came to 1080 nM; in experiment [2], 131 nM.
As to `CN(C(=O)c1ccc2c(c1)OC(C)(C)O2)[C@H](CCNC(=O)c1ccccn1)Cc1ccccc1` [Example 101, Pyridine-2-carboxylic acid {(S)-3-[(2,2-dimethyl-benzo[1,3]dioxole-5-carbonyl)-methyl-amino]-4-phenyl-butyl}-amide], in experiment [1], the inhibition at 10 µM amounted to 13%. In addition, the Kd in experiment [2] was 1680 nM.
As for `CN(C(=O)c1ccc2c(c1)OCO2)[C@H](CCNC(=O)c1nc2ccccc2o1)Cc1ccccc1` [Example 108, Benzooxazole-2-carboxylic acid {(S)-3-[(benzo[1,3]dioxole-5-carbonyl)-methyl-amino]-4-phenyl-butyl}-amide], the Kd was determined as 3990 nM in experiment [1] and 542 nM in experiment [2].
Turning to `CC(=O)NCC[C@H](Cc1ccccc1)N(C)C(=O)c1ccc2c(c1)OCO2` [Example 109, Benzo[1,3]-dioxole-5-carboxylic acid ((S)-3-acetylamino-1-benzyl-propyl)-methyl-amide], the inhibition at 10 µM in experiment [1] amounted to 39%. Further, the Kd in experiment [2] stood at 1720 nM.
On to `CN(C(=O)c1ccccc1)[C@](C)(CCNC(=O)c1ccccn1)Cc1ccccc1` [Example 111, Pyridine-2-carboxylic acid [(S)-3-(benzoyl-methyl-amino)-3-methyl-4-phenyl-butyl]-amide], for which the inhibition at 10 µM in experiment [1] came out at 25%. Besides, the Kd in experiment [2] is 562 nM.
Turning to `CN(C(=O)c1ccccc1)[C@H](CCNC(=O)c1ccccn1)C(C)(C)c1ccccc1` [Example 114, Pyridine-2-carboxylic acid [(R)-3-(benzoyl-methyl-amino)-4-methyl-4-phenyl-pentyl]-amide], the inhibition at 10 µM is 34% in experiment [1] and 18% in experiment [2].
Taken in the same sequence, the figures for `CN(C(=O)c1ccccc1)[C@H](CCNC(=O)c1ccccn1)[C@@H](O)c1ccccc1` [Example 115, Pyridine-2-carboxylic acid [(3R,4S)-3-(benzoyl-methyl-amino)-4-hydroxy-4-phenyl-butyl]-amide] were 13% and 33%.
Turning to `CN(C(=O)c1ccccc1)[C@H](CCNC(=O)c1ccccn1)[C@@H](F)c1ccccc1` [Example 116, Pyridine-2-carboxylic acid [(3R,4S)-3-(benzoyl-methyl-amino)-4-fluoro-4-phenyl-butyl]-amide], in experiment [1], the Kd was 1550 nM. For the same compound, the inhibition at 10 µM in experiment [2] amounted to 29%.
As to `COc1ccc(C(=O)N(C)[C@H](CCNC(=O)c2cccn2C)Cc2ccccc2)cc1OC` [Example 120, 1-Methyl-1H-pyrrole-2-carboxylic acid {(8)-3-[(3,4-dimethoxy-benzoyl)-methyl-amino]-4-phenyl-butyl}-amide], the results for the Kd in experiment [1] and in experiment [2] were 182 nM and 4 nM, respectively.
